Tests used:
Conditions in all cases: Hepatitis B virus, HepG2, read-out: EC50 ± StD (nM)
HBV genotype B2 = experiment: Antiviral effect on HBV genotypes, transiently transfected HepG2 cells; assay type: cell-based
Text: (§1) HepG2 cell line was used for HBV genotypes and core variants inhibition assays. HepG2 cell line is maintained in DMEM supplemented with 10% of fetal bovine serum, 1% of glutamine and 1% of penicillin/streptomycin.
(§2) For antiviral effect on HBV A-E genotypes, HepG2 cell line and DNA plasmids expressing HBV genome of different genotypes, from A to E, were used. HepG2 were transiently transfected with plasmid DNA harboring 1.1-mer-overlength genomic sequences of each HBV genotypes A to E isolates cloned into the pcDNA3.1/Zeo(−) vector as described in J Virol. 2010, 84, 3879-88 (https://doi.org/10.1128/JVI.02528-09). Each plasmid contains the 1.1×HBV genome under the control of a CMV promoter. The list of plasmid used is the following: pcDNA3.1-HBV1.1-A2 (HBV genotype A2), pcDNA3.1-HBV1.1—B2 (HBV genotype B2), pcDNA3.1-HBV1.1—C2 (HBV genotype C2), pcDNA3.1-HBV1.1-D (described as p26 in the above reference, HBV genotype D), pcDNA3.1-HBV1.1-E (HBV genotype E). Methods of generating plasmids are well know in the art (as for example in Viruses 2020, 12, 353, doi:10.3390/v12030353; Antiviral Research 144 (2017) 205-215, http://dx.doi.org/10.1016/j.antiviral.2017.06.016) and the selection of a suitable method is not a limitation on the present invention.
(§3) HepG2 cells were seeded in polylysine coated 96 multiwell plates at a density of 2*10^4 cells/well and incubated overnight at 37° C. The following day cells were transfected with the HBV plasmids (100 ng/well) using the Lipofectamine 3000 Reagent (Thermo Fisher Scientific) and following manufacturer instructions. After 5 h transfection mixtures were removed and cells were treated with serially diluted compounds in 0.5% DMSO at 8-point dose-response as previously described. After 96 hours of incubation at 37° C. with compound the supernatants were collected, centrifuged for cell debris clarification and incubated with DNase I amplification grade 1 Unit/50 μl (Sigma) for 1 h at 37° C. to allow plasmid input digestion. Quantification of extracellular HBV DNA with direct qPCR was performed as previously described. To avoid unspecific detection of HBV plasmid and to confirm plasmid digestion, specific primers designed across plasmid backbone and HBV sequence were added as controls (HBV-CNT-gt-F:5′-[…]-3′ (SEQ ID No. 3), HBV-CNT-gt-R:5′-[…]-3′(SEQ ID No. 4)). Antiviral activity data for each genotype are reported as EC50 mean value. Moreover the EC50 shift value is indicated, corresponding to the ratio between the observed EC50 and the EC50 for genotype D, which is used as reference genotype (see RESULTS, Table 2 legend). Excel and Graphpad Prism programs are typically used for data elaboration and EC50 calculation.

HBV genotype A2 = experiment: as above; assay type: cell-based
Text: as §1, §2, §3

HBV genotype E = experiment: as above; assay type: cell-based
Text: as §1, §2, §3

HBV genotype C2 = experiment: as above; assay type: cell-based
Text: as §1, §2, §3

HBV genotype D = experiment: as above; assay type: cell-based
Text: as §1, §2, §3

[1] = system: HBV core protein variant Y118F; experiment: Antiviral effect against core variants, transfected HepG2 cells; assay type: cell-based, HBV genotype D
Experimental: as §1, §3
(§4) The experimental procedure for antiviral effect against HBV core protein variants was similar to the one previously described for antiviral effect on HBV A-E Genotypes. Different core point mutations (F23Y, F110I, I105T, L37Q, T33N, T33P, T128I, V124G, Y118F) were selected based on their ability to reduce potency of CAMs currently in development (literature data) and introduced in the plasmids containing the HBV genome of genotype D (pcDNA3.1-HBV1.1-D, described above). The following list of plasmids was generated by site-directed mutagenesis of the parent plasmid pcDNA3.1-HBV1.1-D (p26 in J Virol. 2010, 84, 3879-88): pcDNA3.1-HBV1.1-D-CoreF23Y, pcDNA3.1-HBV1.1-D-CoreF110I, pcDNA3.1-HBV1.1-D-Core 1105 T, pcDNA3.1-HBV1.1-D-CoreL37Q, pcDNA3.1-HBV1.1-D-CoreT33N, pcDNA3.1-HBV1.1-D-CoreT33P, pcDNA3.1-HBV1.1-D-CoreT128I, pcDNA3.1-HBV1.1-D-CoreV124G, pcDNA3.1-HBV1.1-D-CoreY118F (point mutations in the nucleotide codon relative to the indicated core aminoacid substitution are the followings: TTC/TAC for F23Y, TTT/ATT for F110I, ATT/ACT for I105T, CTG/CAG for L37Q, ACC/AAC for T33N, ACC/CCC for T33P, ACT/ATT for T128I, GTG/GGG for V124G, TAT/TTT for Y118F). Antiviral activity data for each variant are reported as EC50 mean value and EC50 shift compared to wild type (see RESULTS, Table 4 legend). Excel and Graphpad Prism programs are typically used for data elaboration and EC50 calculation.

[2] = system: HBV core protein variant T128I; experiment: as above; assay type: cell-based, HBV genotype D
Experimental: as §1, §3, §4

[3] = system: HBV core protein variant T33N; experiment: as above; assay type: cell-based, HBV genotype D
Experimental: as §1, §3, §4

[4] = system: HBV core protein variant L37Q; experiment: as above; assay type: cell-based, HBV genotype D
Experimental: as §1, §3, §4

[5] = system: HBV core protein variant I105T; experiment: as above; assay type: cell-based, HBV genotype D
Experimental: as §1, §3, §4

[6] = system: HBV core protein variant T33P; experiment: as above; assay type: cell-based, HBV genotype D
Experimental: as §1, §3, §4

[7] = system: HBV core protein variant F23Y; experiment: as above; assay type: cell-based, HBV genotype D
Experimental: as §1, §3, §4

[8] = system: HBV core protein variant F110I; experiment: as above; assay type: cell-based, HBV genotype D
Experimental: as §1, §3, §4

[9] = system: HBV core protein variant V124G; experiment: as above; assay type: cell-based, HBV genotype D
Experimental: as §1, §3, §4

## Cc1cc(NC(=O)c2c3c(cn2C)S(=O)(=O)N[C@H]2CN(C(=O)C(=O)N[C@@H](C)C(F)(F)F)C[C@H]2CO3)ccc1F [Example E15, (3aR,10aR)—N-(4-fluoro-3-methylphenyl)-7-methyl-2-(2-oxo-2-(((S)-1,1,1-trifluoropropan-2-yl)amino)acetyl)-2,3,3a,4,10,10a-hexahydro-1H,7H-dipyrrolo[3,4-b:3′,4′-f][1,4,5]oxathiazocine-8-carboxamide 5,5-dioxide]
HBV genotype B2
  EC50: 1.58 ± 0.7 nM
HBV genotype A2
  EC50: 2.14 ± 0.43 nM
HBV genotype E
  EC50: 1.79 ± 1.08 nM
HBV genotype C2
  EC50: 0.72 ± 0.55 nM
HBV genotype D
  EC50: 0.94 ± 0.49 nM
[1]
  EC50: 6.37 ± 1.84 nM
[2]
  EC50: 8.91 ± 5.85 nM
[3]
  EC50: 46.9 ± 21.1 nM
[4]
  EC50: 8.72 ± 3.76 nM
[5]
  EC50: 3.22 ± 1.45 nM
[6]
  EC50: 1.68 ± 0.37 nM
[7]
  EC50: 6.33 ± 0.94 nM
[8]
  EC50: 1.12 ± 0.3 nM
[9]
  EC50: 6.8 ± 2.08 nM
